Measured values reported in ChEMBL document CHEMBL3784984, “Cyclolinopeptides, cyclic peptides from flaxseed with osteoclast differentiation inhibitory activity” (Bioorg Med Chem Lett, 2016).
Non-standard residues stand in square brackets, D forms with d. Residues, ends and D or L forms follow the SMILES beside them. Met(O) = CS(=O)CC[C@H](N)C(=O)O

Assays:
Bone marrow cell = test: Inhibition of RANKL-induced osteoclast differentiation in ICR mouse bone marrow cells after 48 hrs by TRAP assay; type: functional, cell-based
[1] = Cytotoxicity against ICR mouse bone marrow cells assessed as cell viability after 24 hrs by MTT assay; type: cell-based

| Compound | IC50 (Bone marrow cell) [µM] | Activity [1] |
| --- | --- | --- |
| CC[C@H](C)[C@@H]1NC(=O)[C@H](C(C)C)NC(=O)[C@H](Cc2ccccc2)NC(=O)[C@H](Cc2ccccc2)NC(=O)[C@@H]2CCCN2C(=O)[C@@H]2CCCN2C(=O)[C@H]([C@@H](C)CC)NC(=O)[C@H](CC(C)C)NC(=O)[C@H](CCSC)NC1=O (cyclo(FFVIMLIPP)) | 5.53 | Non-toxic |
| CC[C@H](C)[C@@H]1NC(=O)[C@H](C(C)C)NC(=O)[C@H](Cc2ccccc2)NC(=O)[C@H](Cc2ccccc2)NC(=O)[C@@H]2CCCN2C(=O)[C@@H]2CCCN2C(=O)[C@H]([C@@H](C)CC)NC(=O)[C@H](CC(C)C)NC(=O)[C@H](CC[S+](C)[O-])NC1=O (stereo not given in full) (cyclo(FFVI[Met(O)]LIPP)) | 14.9 | Non-toxic |
| CC[C@H](C)[C@@H]1NC(=O)[C@H](Cc2c[nH]c3ccccc23)NC(=O)[C@H](Cc2ccccc2)NC(=O)[C@H](Cc2ccccc2)NC(=O)[C@@H]2CCCN2C(=O)[C@H](CCSC)NC(=O)[C@H](CC(C)C)NC(=O)[C@H](CCSC)NC1=O (cyclo(FFWIMLMP)) | 0.49 | Non-toxic |
| CC[C@H](C)[C@@H]1NC(=O)[C@H](Cc2c[nH]c3ccccc23)NC(=O)[C@H](Cc2ccccc2)NC(=O)[C@H](Cc2ccccc2)NC(=O)[C@@H]2CCCN2C(=O)[C@H](CC[S+](C)[O-])NC(=O)[C@H](CC(C)C)NC(=O)[C@H](CCSC)NC1=O (stereo not given in full) (cyclo(FFWIML[Met(O)]P)) | 4.67 | Non-toxic |
| CC[C@H](C)[C@@H]1NC(=O)[C@H](Cc2c[nH]c3ccccc23)NC(=O)[C@H](Cc2ccccc2)NC(=O)[C@H](Cc2ccccc2)NC(=O)[C@@H]2CCCN2C(=O)[C@H](CC(C)C)NC(=O)[C@H](CC(C)C)NC(=O)[C@H](CC[S+](C)[O-])NC1=O (stereo not given in full) (cyclo(FFWI[Met(O)]LLP)) | 3.86 | Non-toxic |
| CC[C@H](C)[C@@H]1NC(=O)[C@H](Cc2c[nH]c3ccccc23)NC(=O)[C@H](Cc2ccccc2)NC(=O)[C@H](Cc2ccccc2)NC(=O)[C@@H]2CCCN2C(=O)[C@H](CCSC)NC(=O)[C@H](CC(C)C)NC(=O)[C@H](CC[S+](C)[O-])NC1=O (stereo not given in full) (cyclo(FFWI[Met(O)]LMP)) | 0.83 | Non-toxic |
| CC[C@H](C)[C@@H]1NC(=O)[C@H](Cc2c[nH]c3ccccc23)NC(=O)[C@H](Cc2ccccc2)NC(=O)[C@H](Cc2ccccc2)NC(=O)[C@@H]2CCCN2C(=O)[C@H](CC[S+](C)[O-])NC(=O)[C@H](CC(C)C)NC(=O)[C@H](CC[S+](C)[O-])NC1=O (stereo not given in full) (cyclo(FFWI[Met(O)]L[Met(O)]P)) | 4.04 | Non-toxic |
| CSCC[C@@H]1NC(=O)[C@H](C(C)C)NC(=O)[C@H](Cc2c[nH]c3ccccc23)NC(=O)[C@H](Cc2ccccc2)NC(=O)[C@H](Cc2ccccc2)NC(=O)[C@@H]2CCCN2C(=O)[C@H](CCSC)NC(=O)[C@H](CC(C)C)NC1=O (cyclo(FFWVMLMP)) | 0.6 | Non-toxic |
| CSCC[C@@H]1NC(=O)[C@H](C(C)C)NC(=O)[C@H](Cc2c[nH]c3ccccc23)NC(=O)[C@H](Cc2ccccc2)NC(=O)[C@H](Cc2ccccc2)NC(=O)[C@@H]2CCCN2C(=O)[C@H](CC[S+](C)[O-])NC(=O)[C@H](CC(C)C)NC1=O (stereo not given in full) (cyclo(FFWVML[Met(O)]P)) | 0.47 | Non-toxic |
| CSCC[C@@H]1NC(=O)[C@H](CC(C)C)NC(=O)[C@H](CC[S+](C)[O-])NC(=O)[C@H](C(C)C)NC(=O)[C@H](Cc2c[nH]c3ccccc23)NC(=O)[C@H](Cc2ccccc2)NC(=O)[C@H](Cc2ccccc2)NC(=O)[C@@H]2CCCN2C1=O (stereo not given in full) (cyclo(FFWV[Met(O)]LMP)) | 0.59 | Non-toxic |
| CC(C)C[C@@H]1NC(=O)[C@H](CC[S+](C)[O-])NC(=O)[C@H](C(C)C)NC(=O)[C@H](Cc2c[nH]c3ccccc23)NC(=O)[C@H](Cc2ccccc2)NC(=O)[C@H](Cc2ccccc2)NC(=O)[C@@H]2CCCN2C(=O)[C@H](CC[S+](C)[O-])NC1=O (stereo not given in full) (cyclo(FFWV[Met(O)]L[Met(O)]P)) | 0.58 | Non-toxic |
| CC[C@H](C)[C@@H]1NC(=O)[C@H](Cc2ccccc2)NC(=O)[C@H](CC(C)C)NC(=O)[C@@H]2CCCN2C(=O)[C@H](Cc2ccccc2)NC(=O)[C@H](C(C)C)NC(=O)[C@H](CC(C)C)NC(=O)[C@H](CCSC)NC1=O (cyclo(FIMLVFPL)) | 15.3 | Non-toxic |
| CC[C@H](C)[C@@H]1NC(=O)[C@H](Cc2ccccc2)NC(=O)[C@H](CC(C)C)NC(=O)[C@@H]2CCCN2C(=O)[C@H](Cc2ccccc2)NC(=O)[C@H](C(C)C)NC(=O)[C@H](CC(C)C)NC(=O)[C@H](CC[S+](C)[O-])NC1=O (stereo not given in full) (cyclo(FI[Met(O)]LVFPL)) | > 20 | Non-toxic |
| COc1cc(/C=C/C(=O)CC(=O)/C=C/c2ccc(O)c(OC)c2)ccc1O [CURCUMIN] | 7.5 |  |
| CC[C@H](C)[C@@H]1NC(=O)[C@H](CC(C)C)NC(=O)[C@H](Cc2ccccc2)NC(=O)[C@H](Cc2ccccc2)NC(=O)[C@@H]2CCCN2C(=O)[C@@H]2CCCN2C(=O)[C@H](C(C)C)NC(=O)[C@H](CC(C)C)NC(=O)[C@H]([C@@H](C)CC)NC1=O [CYCLOLINOPEPTIDE A] (cyclo(FFLIILVPP)) | 12.2 | Non-toxic |
| CC(C)Oc1ccc2c(=O)c(-c3ccccc3)coc2c1 [IPRIFLAVONE] | 17.2 |  |
